From BigSolDB 2.1

O=c1cc(CBr)c2ccccc2[nH]1
solubility (mole fraction)
Conditions | 278.15 K | 283.15 K | 288.15 K | 293.15 K | 298.15 K | 303.15 K | 308.15 K | 313.15 K | 318.15 K
in NMP | 0.00539 | 0.00606 | 0.00705 | 0.0081 | 0.00928 | 0.0105 | 0.0119 | 0.0135 | 0.0151
in ethanol | 0.00019 | 0.000211 | 0.000235 | 0.000261 | 0.000286 | 0.000316 | 0.000347 | 0.000378 | 0.000411
in isopropanol | 0.000152 | 0.000175 | 0.000202 | 0.000229 | 0.00026 | 0.000293 | 0.000328 | 0.000365 | 0.000406
in n-propanol | 0.000242 | 0.000269 | 0.000297 | 0.000325 | 0.000357 | 0.00039 | 0.00043 | 0.000466 | 0.000505
in water | 4.78e-06 | 6.58e-06 | 9.12e-06 | 1.25e-05 | 1.67e-05 | 2.16e-05 | 2.88e-05 | 3.76e-05 | 4.76e-05
